Test results: patent US6120997A, “Nucleic acid binders having an hydroxyamine motif” (The Scripps Research Institute, priority 1998, dated 2000)

How the values were obtained:
AS-wt = experiment: SPR binding of aminoglycosides to decoding region A-site model AS-wt; set-up: species or system E. coli; conditions: for specificity for AS-wt over negative controls (in words): Example 5, HBS-buffer
Experimental: The RNA binding properties of 100-800 were analyzed using a surface plasmon resonance based assay that was recently developed in these laboratories. This assay allows the determination of both affinity and specificity of small molecule-RNA interactions. For the analysis, the compounds were injected over a matrix containing RNA that was immobilized through a biotin tag and the equilibrium binding values were recorded at various concentrations.
Non-linear curve fitting was then used to determine the values of the dissociation constants (KD). The specificity of binding, i.e. the ability to discriminate between different RNA sequences was evaluated by comparing the binding to the target sequence (AS-wt) and the negative control (AS-U1495A). The ratio of KD(AS-U1495A) to KD(AS-wt) was taken to be a representation of the specificity of the binding event.
(§1) For the quantitative measurement of aminoglycoside binding to these sequences, we utilized our recently developed SPR-based assay. Biotinylated derivatives of all sequences were prepared by in vitro transcription in the presence of guanosine 5'-monophosphorothioate followed by alkylation with a biotin iodoacetamide derivative. The RNA conjugates were then immobilized onto streptavidin coated SPR-sensorchips for analysis.
(§2) In the same manner as illustrated for paromomycin, a panel of aminoglycosides was screened and the results are compiled in the table of FIGS. 46 and 47. In addition to the naturally occuring aminoglycoside antibiotics, some of the compounds in FIG. 46 are synthetically derived, unnatural aminoglycosides. The number of independent determinations for each dissociation constant ranged from 1-3. […] All data were recorded under near physiological salt conditions (HBS-buffer: 150 mM NaCl, 10 mM HEPES, pH7.4, 3.4 mM EDTA) unless noted otherwise. Data points were taken at concentrations ranging from […]. Below this concentration range, surface transport limitations prevent the attainment of equilibrium.
Plasmon resonance and antimicrobial testing for Example 4. Synthesis of the biotinylated RNA and surface plasmon resonance detected binding experiments were performed as described vida supra. Solution conditions: 150 mM NaCl, 10 mM HEPES (pH 7.4), 3.4 mM EDTA. KD determination from the binding curves.
The fitting routine of the program kaleidagraph was used for all calculations. The starting values for a and b were set to 1 and 0 respectively. The number of KD values used in the fitting was adjusted depending on the observed range of equivalents bound but generally varied from 3 to 4.
General Procedures for SPR Binding Studies done in Example 5. Samples were prepared by serial dilutions from stock solutions in RNase free microfuge tubes (Ambion) and were centrifuged at 14000 rpm for degassing. Unless otherwise noted, all binding studies were carried out using HBS buffer (Pharmacia Biosensor AB) which was used as obtained. All procedures for binding studies were automated as methods using repetitive cycles of sample injection and regeneration. Typically, buffer was injected in the first two cycles to establish a stable baseline value. Samples were injected at a flowrate of […] using either the KINJECT command. All aminoglycoside samples were injected from autoclaved 7 mm plastic vials that were capped with pierceable plastic crimp caps. To minimize carry over, samples were injected in order of increasing concentration. The running buffer was identical to the injection buffer. Expected values for the equilibrium response of one equivalent of analyte were calculated from the relative molecular weight of the analyte and the immobilized RNA ligand in each flowcells and adjusted with a correction factor of 0.76 which arises from the different molar refractive indices of RNA and the analyte. […]

Neo16-bd = experiment: SPR binding of aminoglycosides to Neo16-bd aptamer
Experimental: Conditions: 10 mM HEPES (pH 7.4), 0.1 mM EDTA and NaCl as indicated.
The binding of aminoglycosides to RNA is likely to involve substantial ionic contributions and therefore should be strongly influenced by competing buffer ions. […] We studied the salt dependence of neomycin B binding to RBE3, RBE3-neg and Neo16-bd (FIG. 14) by varying the concentration of NaCl included in the injection buffer (10 mM HEPES, pH 7.4, 0.1 mM EDTA). […] This neomycin binding motif was obtained by in vitro selection under conditions of high ionic strength.
To further improve our understanding of specific aminoglycoside recognition, we have also included an artificial aminoglycoside receptor that was evolved in vitro to recognize an aminoglycoside. A number of RNA aptamers for small molecules have been reported in recent years. Among them are aptamers that recognize the aminoglycosides tobramycin, lividomycin and kanamycin.
For comparison, the corresponding values for AS-wt are also included.
General Procedures for SPR Binding Studies done in Example 5. Samples were prepared by serial dilutions from stock solutions in RNase free microfuge tubes (Ambion) and were centrifuged at 14000 rpm for degassing. Unless otherwise noted, all binding studies were carried out using HBS buffer (Pharmacia Biosensor AB) which was used as obtained. All procedures for binding studies were automated as methods using repetitive cycles of sample injection and regeneration. Typically, buffer was injected in the first two cycles to establish a stable baseline value. Samples were injected at a flowrate of […] using either the KINJECT command. All aminoglycoside samples were injected from autoclaved 7 mm plastic vials that were capped with pierceable plastic crimp caps. To minimize carry over, samples were injected in order of increasing concentration. The running buffer was identical to the injection buffer.

AS-U1406A = experiment: SPR binding of aminoglycosides to AS-U1406A; conditions: Example 5, HBS-buffer
Source text: To understand the specificity of ribosomal RNA recognition by the various aminoglycosides, we decided to investigate their binding to AS-wt and compare the results to a series of control mutants which have likewise been characterized by footprinting (FIG. 44). These include the negative controls AS-U1495A, AS-DA1492 and AS-res. […] In AS-U1495A a critical hydrogen bond acceptor which interacts with N1 of the 2-deoxystreptamine ring has been removed. The mutation DA1492 destroys the bulged pocket in which paromomycin ring II (the glucose ring) is positioned. Finally, in the AS-res mutant the G1491:C1409 base pair which creates the floor of the binding pocket is disrupted by replacing it with a C1491:U1409 mismatch. Breaking up this critical base pair in the E. coli 16S ribosomal RNA causes resistance to a broad range of aminoglycosides. In contrast to these negative controls, the mutant hairpin AS-U1406A still contains all necessary elements for specific aminoglycoside recognition and binds paromomycin with wild type specificity.
as §1, §2
General Procedures for SPR Binding Studies done in Example 5. Samples were prepared by serial dilutions from stock solutions in RNase free microfuge tubes (Ambion) and were centrifuged at 14000 rpm for degassing. Unless otherwise noted, all binding studies were carried out using HBS buffer (Pharmacia Biosensor AB) which was used as obtained. All procedures for binding studies were automated as methods using repetitive cycles of sample injection and regeneration. Typically, buffer was injected in the first two cycles to establish a stable baseline value. Samples were injected at a flowrate of […] using either the KINJECT command. All aminoglycoside samples were injected from autoclaved 7 mm plastic vials that were capped with pierceable plastic crimp caps. To minimize carry over, samples were injected in order of increasing concentration. The running buffer was identical to the injection buffer. Expected values for the equilibrium response of one equivalent of analyte were calculated from the relative molecular weight of the analyte and the immobilized RNA ligand in each flowcells and adjusted with a correction factor of 0.76 which arises from the different molar refractive indices of RNA and the analyte. Binding constants were calculated by fitting the recorded binding isotherm (equivalents bound vs, concentration) to a model with n independent binding constants using the fitting program provided in the program Kaleidagraph (Macintosh).

Compound | specificity for AS-wt over negative controls (in words) (AS-wt) | binding to AS-U1406A mutant relative to AS-wt (in words) (AS-U1406A) | other results
CN[C@@H]1[C@@H](O[C@H]2O[C@H](CO)[C@@H](N)[C@H](O)[C@H]2O)OC2C[C@@H](N)[C@@H](O[C@H]3[C@H](O)[C@@H](O)[C@H](N)C[C@@H]3N)OC2[C@@H]1O (some centres unmarked) [Apramycin] | only marginal if any specificity for AS-wt | – | –
NC[C@H]1O[C@H](O[C@H]2[C@H](O[C@@H]3O[C@H](CO)[C@@H](O[C@H]4O[C@@H](CO)[C@@H](O)[C@H](O)[C@H]4O)[C@H]3O)[C@@H](O)[C@H](N)C[C@@H]2N)[C@H](N)[C@@H](O)[C@@H]1O [Compound 700, 2"',6"'-desamino-2"'-6"'-hydroxy neomycin B] | – | – | RNA binding, affinity or specificity for AS-wt (in words) (AS-wt; Example 4): virtually the same RNA binding profile
NC[C@@H]1O[C@H](O[C@H]2[C@@H](O)[C@H](O[C@@H]3[C@@H](O)[C@H](N)C[C@H](N)[C@H]3O[C@H]3O[C@H](CN)[C@@H](O)[C@H](O)[C@H]3N)O[C@@H]2CO)[C@H](O)[C@@H](O)[C@@H]1O [Compound 800, 2"'-desamino-2"'-hydroxy neomycin B] | – | – | Kd (Neo16-bd; HBS-buffer, read-out: Kd, Neo16bd): < 10 nM; affinity improvement for AS-wt in relation to 700 (AS-wt): 40 fold
CN[C@H]1C[C@@H](N)[C@H](O)[C@@H](O[C@@H]2O[C@H](CO)[C@H](O)[C@@H]3OC4(O[C@H]23)O[C@H]([C@@H](N)CO)[C@H](O)[C@H](O)[C@H]4O)[C@@H]1O (some centres unmarked) [Hygromycin B] | none | – | –
NCC1OC(OC2C(N)CC(N)C(OC3OC(CO)C(O)C(N)C3O)C2O)C(O)C(O)C1O (centres unmarked) [Kanamycin A] | only very moderate specificity for AS-wt | not increased in the U1406A mutant relative to AS-wt but rather decreased | –
NC[C@H]1O[C@H](O[C@H]2[C@H](O)[C@@H](O[C@H]3O[C@H](CO)[C@@H](O)[C@H](N)[C@H]3O)[C@H](N)C[C@@H]2N)[C@H](N)[C@@H](O)[C@@H]1O [Kanamycin B] | only very moderate specificity for AS-wt | not increased in the U1406A mutant relative to AS-wt but rather decreased | –
N[C@H]1[C@@H](O[C@H]2[C@H](O)[C@@H](O)[C@H](N)C[C@@H]2N)O[C@H](CO)[C@@H](O)[C@@H]1O [Paromamine] | substantial decrease in binding to AS-wt and a loss of most specificity | – | –
NC[C@H]1O[C@H](O[C@H]2[C@H](O[C@@H]3O[C@H](CO)[C@@H](O)[C@H]3O)[C@@H](O)[C@H](N)C[C@@H]2N)[C@H](N)[C@@H](O)[C@@H]1O [Ribostamycin] | low | only weakly enhanced | binding to Neo16bd (in words) (Neo16-bd): bound more tightly to the aptamer than paromomycin; lower affinity for AS-wt relative to neamine (AS-wt): 3 fold
NC[C@H]1O[C@H](O[C@H]2[C@H](O)[C@@H](O[C@H]3O[C@H](CO)[C@@H](O)[C@H](N)[C@H]3O)[C@H](N)C[C@@H]2N)[C@H](N)C[C@@H]1O [Tobramycin] | only very moderate specificity for AS-wt | not increased in the U1406A mutant relative to AS-wt but rather decreased | –
Butirosin | only moderate specificity for AS-wt | significantly enhanced | –
Gentamycin | only very moderate specificity for AS-wt | not increased in the U1406A mutant relative to AS-wt but rather decreased | –
